The record followed here is paper PMC5218480 (PLoS ONE, 2017).

This assay has as its system MV-4-11 cells. The assay can be described thus: Gene expression microarray analysis (Affymetrix PrimeView) and GSEA. It is filed as cell-based, human. Conditions: ProbeSet 11723930_at; LIST D. Also noted: RFU PODN (11730768_x_at) / Fold change /veh PODN (11730768_x_at) / RFU LINC00158 (11744669_a_at) / Fold change /veh LINC00158 (11744669_a_at) / RFU DUSP10 (11751237_a_at) / Fold change /veh DUSP10 (11751237_a_at) / RFU ID3 (11757404_x_at) / Fold change /veh ID3 (11757404_x_at) / RFU PLEKHG5 (11737974_s_at) / Fold change /veh PLEKHG5 (11737974_s_at) / RFU LRRC4B (11730491_at) / Fold change /veh LRRC4B (11730491_at) / RFU GIMAP4 (11747438_a_at) / Fold change /veh GIMAP4 (11747438_a_at) / RFU KRT8 (11758183_x_at) / Fold change /veh KRT8 (11758183_x_at) / RFU CNN1 (11734310_a_at) / Fold change /veh CNN1 (11734310_a_at) / RFU VPS37D (11726825_at) / Fold change /veh VPS37D (11726825_at) / RFU C10orf10 (11716522_x_at) / Fold change /veh C10orf10 (11716522_x_at) / RFU KIR2DL2 /// KIR2DL4 /// KIR2DL5A /// KIR2DL5B /// KIR2DS1 /// KIR2DS2 /// KIR2DS3 /// KIR2DS4 /// KIR3DL3 /// KIR3DL3 /// KIR3DS1 (11738374_at) / Fold change /veh KIR2DL2 /// KIR2DL4 /// KIR2DL5A /// KIR2DL5B /// KIR2DS1 /// KIR2DS2 /// KIR2DS3 /// KIR2DS4 /// KIR3DL3 /// KIR3DL3 /// KIR3DS1 (11738374_at) / RFU C1QL1 (11718748_at) / Fold change /veh C1QL1 (11718748_at) / RFU TMPRSS4 (11747572_a_at) / Fold change /veh TMPRSS4 (11747572_a_at) / RFU HAMP (11756126_x_at) / Fold change /veh HAMP (11756126_x_at) / RFU RNFT2 (11725882_a_at) / Fold change /veh RNFT2 (11725882_a_at) / RFU NR4A2 (11747474_a_at) / Fold change /veh NR4A2 (11747474_a_at) / RFU ABCC12 (11746883_a_at) / Fold change /veh ABCC12 (11746883_a_at) / RFU TMEM136 (11760407_x_at) / Fold change /veh TMEM136 (11760407_x_at) / RFU CLDN22 /// WWC2 (11732394_at) / Fold change /veh CLDN22 /// WWC2 (11732394_at) / RFU HLA-DPB1 (11760878_x_at) / Fold change /veh HLA-DPB1 (11760878_x_at) / RFU SPINT1 (11716480_a_at) / Fold change /veh SPINT1 (11716480_a_at) / RFU GAP43 (11754022_s_at) / Fold change /veh GAP43 (11754022_s_at) / RFU A4GNT (11735810_at) / Fold change /veh A4GNT (11735810_at) / RFU PRB3 (11715151_x_at) / Fold change /veh PRB3 (11715151_x_at) / RFU TUBB4B (11761932_at) / Fold change /veh TUBB4B (11761932_at) / RFU CAPN14 (11732068_a_at) / Fold change /veh CAPN14 (11732068_a_at) / RFU TMCC2 (11721928_a_at) / Fold change /veh TMCC2 (11721928_a_at) / RFU IRGQ (11745062_a_at) / Fold change /veh IRGQ (11745062_a_at) / RFU FAM174B (11720279_a_at) / Fold change /veh FAM174B (11720279_a_at) / RFU TMPRSS4 (11748680_a_at) / Fold change /veh TMPRSS4 (11748680_a_at) / RFU FAM212B (11763350_a_at) / Fold change /veh FAM212B (11763350_a_at) / RFU PLEKHG5 (11743358_a_at) / Fold change /veh PLEKHG5 (11743358_a_at) / RFU ZSCAN30 (11745921_a_at) / Fold change /veh ZSCAN30 (11745921_a_at) / RFU CMKLR1 (11741424_a_at) / Fold change /veh CMKLR1 (11741424_a_at) / RFU LOC101060620 /// MAPK8IP1 (11723275_at) / Fold change /veh LOC101060620 /// MAPK8IP1 (11723275_at) / RFU SPTSSB (11747773_x_at) / Fold change /veh SPTSSB (11747773_x_at) / RFU PRSS12 (11739890_at) / Fold change /veh PRSS12 (11739890_at) / RFU BIN1 (11741810_x_at) / Fold change /veh BIN1 (11741810_x_at) / RFU WNT11 (11732464_a_at) / Fold change /veh WNT11 (11732464_a_at) / RFU C10orf10 (11716521_a_at) / Fold change /veh C10orf10 (11716521_a_at) / RFU C5orf56 (11738089_at) / Fold change /veh C5orf56 (11738089_at) / RFU CYB561 (11721691_x_at) / Fold change /veh CYB561 (11721691_x_at) / RFU ANKRD19P (11752326_a_at) / Fold change /veh ANKRD19P (11752326_a_at) / RFU OR2T12 /// OR2T33 /// OR2T8 (11738714_s_at) / Fold change /veh OR2T12 /// OR2T33 /// OR2T8 (11738714_s_at) / RFU VCAN (11748164_a_at) / Fold change /veh VCAN (11748164_a_at) / RFU JSRP1 (11732532_at) / Fold change /veh JSRP1 (11732532_at) / RFU KRTAP10-11 (11738290_x_at) / Fold change /veh KRTAP10-11 (11738290_x_at) / RFU MYO3A (11730013_a_at) / Fold change /veh MYO3A (11730013_a_at) / RFU EBF3 (11725865_a_at) / Fold change /veh EBF3 (11725865_a_at) / RFU CAMK2N1 (11719241_x_at) / Fold change /veh CAMK2N1 (11719241_x_at) / RFU C5orf56 (11738088_a_at) / Fold change /veh C5orf56 (11738088_a_at) / RFU OLFML3 (11715873_a_at) / Fold change /veh OLFML3 (11715873_a_at) / RFU LOC100653217 /// NTM (11731650_a_at) / Fold change /veh LOC100653217 /// NTM (11731650_a_at) / RFU MAPK11 (11762145_a_at) / Fold change /veh MAPK11 (11762145_a_at) / RFU FIZ1 (11724087_x_at) / Fold change /veh FIZ1 (11724087_x_at) / RFU OASL (11726364_x_at) / Fold change /veh OASL (11726364_x_at) / RFU SOX15 (11748057_x_at) / Fold change /veh SOX15 (11748057_x_at) / RFU CD79A (11719716_a_at) / Fold change /veh CD79A (11719716_a_at) / RFU HIST1H1D (11736915_at) / Fold change /veh HIST1H1D (11736915_at) / RFU CASKIN2 (11723855_a_at) / Fold change /veh CASKIN2 (11723855_a_at) / RFU LOC730098 (11760151_x_at) / Fold change /veh LOC730098 (11760151_x_at) / RFU OR4N2 (11742367_at) / Fold change /veh OR4N2 (11742367_at) / RFU PRRT2 (11749266_a_at) / Fold change /veh PRRT2 (11749266_a_at) / RFU SNX32 (11753110_a_at) / Fold change /veh SNX32 (11753110_a_at) / RFU CDHR5 (11726645_a_at) / Fold change /veh CDHR5 (11726645_a_at) / RFU RCAN1 (11760418_a_at) / Fold change /veh RCAN1 (11760418_a_at) / RFU FAM167A (11723789_a_at) / Fold change /veh FAM167A (11723789_a_at) / RFU FAM26E (11764081_at) / Fold change /veh FAM26E (11764081_at) / RFU ISYNA1 (11749810_s_at) / Fold change /veh ISYNA1 (11749810_s_at) / RFU ACY1 (11761880_at) / Fold change /veh ACY1 (11761880_at) / RFU 11764098_at / Fold change /veh 11764098_at / RFU SAMD14 (11745864_x_at) / Fold change /veh SAMD14 (11745864_x_at) / RFU NPB (11741838_a_at) / Fold change /veh NPB (11741838_a_at) / RFU TMPRSS6 (11731388_a_at) / Fold change /veh TMPRSS6 (11731388_a_at) / RFU KRTAP10-2 (11738614_at) / Fold change /veh KRTAP10-2 (11738614_at) / RFU ARHGAP8 /// PRR5-ARHGAP8 (11727945_x_at) / Fold change /veh ARHGAP8 /// PRR5-ARHGAP8 (11727945_x_at) / RFU KRTAP5-7 /// NADSYN1 (11734609_at) / Fold change /veh KRTAP5-7 /// NADSYN1 (11734609_at) / RFU RASL12 (11751679_a_at) / Fold change /veh RASL12 (11751679_a_at) / RFU CDKN2B (11736163_a_at) / Fold change /veh CDKN2B (11736163_a_at) / RFU PRF1 (11729649_at) / Fold change /veh PRF1 (11729649_at) / RFU, ZNF638 /// ZNF638-IT1 / Fold change vs veh, ZNF638 /// ZNF638-IT1 / RFU, PANK3 / Fold change vs veh, PANK3 / RFU, SH3YL1 / Fold change vs veh, SH3YL1 / RFU, ZEB2 / Fold change vs veh, ZEB2 / RFU, NRIP1 / Fold change vs veh, NRIP1 / RFU, PTTG1IP / Fold change vs veh, PTTG1IP / RFU, CAPN2 / Fold change vs veh, CAPN2 / RFU, MED14 / Fold change vs veh, MED14 / RFU, SNORA58 / Fold change vs veh, SNORA58 / RFU, C1orf63 / Fold change vs veh, C1orf63 / RFU, LRRFIP1 / Fold change vs veh, LRRFIP1 / RFU, NDUFAF7 / Fold change vs veh, NDUFAF7 / RFU, SLC12A2 / Fold change vs veh, SLC12A2 / RFU, IBTK / Fold change vs veh, IBTK / RFU, ESF1 / Fold change vs veh, ESF1 / Fold change vs veh, TMEM50B / RFU, TAOK1 / Fold change vs veh, TAOK1 / RFU, ACBD3 / Fold change vs veh, ACBD3 / RFU, TMA16 / Fold change vs veh, TMA16 / RFU, RWDD3 / Fold change vs veh, RWDD3 / RFU, BCAT1 / Fold change vs veh, BCAT1 / RFU, EDEM3 / Fold change vs veh, EDEM3 / RFU, TMEM33 / Fold change vs veh, TMEM33 / RFU, WDR75 / Fold change vs veh, WDR75 / RFU, AHCTF1 / Fold change vs veh, AHCTF1 / RFU, TFRC / Fold change vs veh, TFRC / RFU, ZDHHC17 / Fold change vs veh, ZDHHC17 / RFU, NOM1 / Fold change vs veh, NOM1 / RFU, ARL8B / Fold change vs veh, ARL8B / RFU, ZBTB11 / Fold change vs veh, ZBTB11 / RFU, TAMM41 / Fold change vs veh, TAMM41 / RFU, KIAA1704 /// LOC100996395 / Fold change vs veh, KIAA1704 /// LOC100996395 / RFU, ING1 / Fold change vs veh, ING1 / RFU, TRMT61B / Fold change vs veh, TRMT61B / RFU, FUBP3 / Fold change vs veh, FUBP3 / RFU, TP53 / Fold change vs veh, TP53 / RFU, TNKS2 / Fold change vs veh, TNKS2 / RFU, ZFP14 / Fold change vs veh, ZFP14 / RFU, ACTR2 / Fold change vs veh, ACTR2 / RFU, PPP3R1 / Fold change vs veh, PPP3R1 / RFU, PIK3R1 / Fold change vs veh, PIK3R1 / RFU, HNRNPA1 / Fold change vs veh, HNRNPA1 / RFU, RNF170 / Fold change vs veh, RNF170 / RFU, ZNF28 / Fold change vs veh, ZNF28 / RFU, RNGTT / Fold change vs veh, RNGTT / RFU, OGT / Fold change vs veh, OGT / RFU, BRD1 / Fold change vs veh, BRD1 / RFU, MARS / Fold change vs veh, MARS / RFU, ZNF655 / Fold change vs veh, ZNF655 / RFU, FAHD1 / Fold change vs veh, FAHD1 / RFU, BDP1 / Fold change vs veh, BDP1 / RFU, LRRCC1 / Fold change vs veh, LRRCC1 / RFU, ARID1A / Fold change vs veh, ARID1A / RFU, ZNF146 / Fold change vs veh, ZNF146 / RFU, ZNF330 / Fold change vs veh, ZNF330 / RFU, GPN3 / Fold change vs veh, GPN3 / RFU, C9orf123 / Fold change vs veh, C9orf123 / RFU, N4BP2L2 / Fold change vs veh, N4BP2L2 / RFU, ARFIP1 / Fold change vs veh, ARFIP1 / RFU, FAM179B / Fold change vs veh, FAM179B / RFU, BCL10 / Fold change vs veh, BCL10 / RFU, UHRF1BP1L / Fold change vs veh, UHRF1BP1L / RFU, BET1 / Fold change vs veh, BET1 / RFU, CNOT2 / Fold change vs veh, CNOT2 / RFU, ZNF268 / Fold change vs veh, ZNF268 / Fold change vs veh, ZNF507 / RFU, DGCR2 / Fold change vs veh, DGCR2 / RFU, WDSUB1 / Fold change vs veh, WDSUB1 / Fold change vs veh, HSP90B1 /// MIR3652 / RFU, ADSS / Fold change vs veh, ADSS / RFU, GK / Fold change vs veh, GK / RFU, ZNF148 / Fold change vs veh, ZNF148 / RFU, TAF9 / Fold change vs veh, TAF9 / RFU, SLC1A5 / Fold change vs veh, SLC1A5 / RFU, SLMO2 / Fold change vs veh, SLMO2 / RFU, ABCC4 / Fold change vs veh, ABCC4 / RFU, LOC101060439 /// RAP1B / Fold change vs veh, LOC101060439 /// RAP1B / RFU, RFX7 / Fold change vs veh, RFX7 / RFU, GTPBP10 / Fold change vs veh, GTPBP10 / RFU, CNEP1R1 / Fold change vs veh, CNEP1R1 / RFU, BIVM-ERCC5 /// ERCC5 / Fold change vs veh, BIVM-ERCC5 /// ERCC5 / RFU, ILF3 / Fold change vs veh, ILF3 / RFU 11762660_at / Fold change /veh 11762660_at / RFU VCAN (11757783_s_at) / Fold change /veh VCAN (11757783_s_at) / RFU DDX43 (11728927_at) / Fold change /veh DDX43 (11728927_at) / RFU KRT8 (11758188_x_at) / Fold change /veh KRT8 (11758188_x_at) / RFU NKD1 (11759106_at) / Fold change /veh NKD1 (11759106_at) / RFU SRD5A1 (11742802_a_at) / Fold change /veh SRD5A1 (11742802_a_at) / RFU TPSAB1 /// TPSB2 (11721975_s_at) / Fold change /veh TPSAB1 /// TPSB2 (11721975_s_at) / RFU GSTM3 (11746129_a_at) / Fold change /veh GSTM3 (11746129_a_at) / RFU IL23R (11737362_x_at) / Fold change /veh IL23R (11737362_x_at) / RFU TMEM51 (11727254_a_at) / Fold change /veh TMEM51 (11727254_a_at) / RFU PIWIL2 (11732686_x_at) / Fold change /veh PIWIL2 (11732686_x_at) / RFU ORM1 (11744905_x_at) / Fold change /veh ORM1 (11744905_x_at) / RFU CCDC152 (11743942_at) / Fold change /veh CCDC152 (11743942_at) / RFU ECM1 (11717891_a_at) / Fold change /veh ECM1 (11717891_a_at) / RFU IL23R (11748794_a_at) / Fold change /veh IL23R (11748794_a_at) / RFU TNFAIP8L3 (11732012_x_at) / Fold change /veh TNFAIP8L3 (11732012_x_at) / RFU MBOAT4 (11741988_at) / Fold change /veh MBOAT4 (11741988_at) / RFU 11764193_at / Fold change /veh 11764193_at / RFU TMEM53 (11763286_at) / Fold change /veh TMEM53 (11763286_at) / RFU MAGEB2 (11727129_at) / Fold change /veh MAGEB2 (11727129_at) / RFU TMEM200A (11744735_a_at) / Fold change /veh TMEM200A (11744735_a_at) / RFU CCDC152 (11751479_a_at) / Fold change /veh CCDC152 (11751479_a_at) / RFU FAM211A (11726209_a_at) / Fold change /veh FAM211A (11726209_a_at) / RFU RGS16 (11746705_a_at) / Fold change /veh RGS16 (11746705_a_at) / RFU VCAN (11755009_s_at) / Fold change /veh VCAN (11755009_s_at) / RFU RHOB (11743442_s_at) / Fold change /veh RHOB (11743442_s_at) / RFU RGS16 (11720943_a_at) / Fold change /veh RGS16 (11720943_a_at) / RFU RGS16 (11720944_at) / Fold change /veh RGS16 (11720944_at) / RFU, VPS4B / Fold change vs veh, VPS4B / RFU, CREB1 / Fold change vs veh, CREB1 / RFU, DNAJC13 / Fold change vs veh, DNAJC13 / RFU, GNAQ / Fold change vs veh, GNAQ / RFU, CDK5R1 / Fold change vs veh, CDK5R1 / RFU, ZRANB3 / Fold change vs veh, ZRANB3 / RFU, CUL4A / Fold change vs veh, CUL4A / RFU, CCNY / Fold change vs veh, CCNY / RFU, UFL1 / Fold change vs veh, UFL1 / RFU, COG3 / Fold change vs veh, COG3 / RFU, DIAPH2 / Fold change vs veh, DIAPH2 / RFU, SKA2 / Fold change vs veh, SKA2 / RFU, AFF3 / Fold change vs veh, AFF3 / RFU, LMF1 / Fold change vs veh, LMF1 / RFU, IPO11 / Fold change vs veh, IPO11 / RFU, DFFB / Fold change vs veh, DFFB / RFU, FOXP1 / Fold change vs veh, FOXP1 / RFU, CARD8 / Fold change vs veh, CARD8 / RFU, STRN3 / Fold change vs veh, STRN3 / RFU, ADK / Fold change vs veh, ADK / RFU, RASSF2 / Fold change vs veh, RASSF2 / RFU, WIPF1 / Fold change vs veh, WIPF1 / RFU, LARP1B / Fold change vs veh, LARP1B / RFU, RASA1 / Fold change vs veh, RASA1 / RFU, RB1 / Fold change vs veh, RB1 / RFU, PPFIA1 / Fold change vs veh, PPFIA1 / RFU, MAT2A / Fold change vs veh, MAT2A / RFU, CCT5 / Fold change vs veh, CCT5 / RFU, WDR92 / Fold change vs veh, WDR92 / RFU, CUX1 / Fold change vs veh, CUX1 / RFU, TTC7A / Fold change vs veh, TTC7A / RFU, TMEM135 / Fold change vs veh, TMEM135 / RFU, DEPTOR / Fold change vs veh, DEPTOR / RFU, CPM / Fold change vs veh, CPM / RFU, DNAJB6 / Fold change vs veh, DNAJB6 / RFU, CACNA2D3 / Fold change vs veh, CACNA2D3 / RFU, DTX4 / Fold change vs veh, DTX4 / RFU, TFCP2 / Fold change vs veh, TFCP2 / RFU, GMCL1 /// GMCL1P1 / Fold change vs veh, GMCL1 /// GMCL1P1 / RFU, AEBP2 / Fold change vs veh, AEBP2 / RFU, SNHG1 /// SNORD22 /// SNORD25 /// SNORD26 /// SNORD27 /// SNORD28 /// SNORD29 /// SNORD31 / Fold change vs veh, SNHG1 /// SNORD22 /// SNORD25 /// SNORD26 /// SNORD27 /// SNORD28 /// SNORD29 /// SNORD31 / Fold change (Aza/veh), C12orf56 (ProbeSet 11735607_a_at) / Fold change (ACY-1035/veh), C12orf56 (ProbeSet 11735607_a_at) / Fold change (Aza/veh), FGFR1OP (ProbeSet 11751329_s_at) / Fold change (ACY-1035/veh), FGFR1OP (ProbeSet 11751329_s_at) / Fold change (Aza/veh), VPS36 (ProbeSet 11739960_a_at) / Fold change (ACY-1035/veh), VPS36 (ProbeSet 11739960_a_at) / RFU SYPL1 (11715823_x_at) / Fold change /veh SYPL1 (11715823_x_at) / RFU IGFBP7 (11715501_s_at) / Fold change /veh IGFBP7 (11715501_s_at) / RFU REEP3 (11722064_at) / Fold change /veh REEP3 (11722064_at) / RFU IGLL1 (11728026_x_at) / Fold change /veh IGLL1 (11728026_x_at): dose or concentration left out as unconfirmed.

For the compound `Nc1ncn([C@@H]2O[C@H](CO)[C@@H](O)[C@H]2O)c(=O)n1` [azacitidine], the “RFU, CCT5” value is given as 106.24 RFU.
